Assay results from patent publication US11767316B2, “Non-fused thiophene derivatives and their uses” (ENYO PHARMA, priority 2018, dated 2023).
Read-outs that look alike come from different tables or passages of the source.

Key:
[1] = tested on: H1N1 (influenza A/New Caledonia/20/99); assay: Antiviral effect on A549 cells infected with H1N1 (MUNANA neuraminidase readout); type: cell-based; settings: H1N1 A/New Caledonia/20/99 at MOI 0.1, 48 h post-infection, MUNANA fluorescence, read-out: IC50
Experimental: The antiviral effect of the compounds of the invention have been tested on A549 cell lines infected with H1N1 (influenza A/New Caledonia/20/99).
Human A549 cells (80,000 cells/well in a 96 well plate) were treated with a range of concentration of test compounds and immediately infected by H1N1 A/New Caledonia/20/99 virus (clinical isolate) at MOI of 0.1 in DMEM/1% Penicillin/streptomycin supplemented with 0.25 μg/ml TPCK trypsin (Sigma) and incubated at 37° C. in 5% CO2. 48 h post-infection, supernatants (25 μl) were collected and transferred into a 96-well black flat-bottom plate, mixed with 25 μl PBS with Ca++/Mg++(Thermo Fisher) and 50 μl of 2′-(4-Methylumbelliferyl)-α-D-N-acetylneuraminic acid sodium salt hydrate stock-solution (20 μM, MUNANA, Sigma). Plates were incubated 1 h at 37° C. and reaction is stopped by adding 100 μl of Stop Solution (glycine 0.1 M pH10.7/25% ethanol). The amount of fluorescent product released by MUNANA hydrolysis (4-MU) was measured in a Tecan spectrophotometer with excitation and emission wavelengths of 365 and 450 nm respectively.

NFκB = NFκB reporter assay (NanoLuciferase) in A549 cells, TNFα stimulation; type: cell-based; settings: Homo sapiens, 4 ng/ml TNFα, 6 hours
Source text: Compounds of the present invention have been tested for their capacity to inhibit NFκB.
The NFκB reporter construct was made by cloning 5 NFκB responsive elements upstream of a NanoLuciferase reporter gene flanked by AAVS1 genomic sequences.
NFκB Responsive element fused with NanoLuciferase and SV40 late Poly(A) signal was amplified from pNL3.2-NFκB-Nluc (Promega) using NFKB-NLUC-F and NFKB-NLUC-R primers and inserted by Infusion (TaKaRa) in AAVS1 SA-2A-puro-pA donor plasmid (Hockemeyer et al, Nat Biotechnol. 2009, 27, 851-7) digested by Sal1. pCRISPR AAVS1-T2 expressing a guide RNA (gRNA) to target human AAVS1 (T2 target sequence) was constructed by inserting AAVS1-T2A hybridized primers in pLentiCRISPR v2-blast (Sanjana et al, Nat Methods. 2014, 11, 783-4) digested by Bsmb1.
A549 cells were transfected by the plasmids and puromycine selected for 5 days (1 μg mL-1). Then clones were obtained by limiting dilution and selected to maximize TNFα dependent NFkB-NanoLuciferase induction.
The reporter cells were seeded on a 96-well plate for overnight with DMEM including 10% FBS. Test compounds were added at varying concentrations. The cells then were treated with 4 ng/ml TNFα (Peprotech, ref E251) in DMEM+10% FBS. NanoGlo luciferase assay (Promega) was carried out 6 hours later. Luminescence was measured using a Spark 20M spectrofluorimeter (Tecan). Values were normalized to the luminescence measured in untreated cells.

[2] = Influenza A virus, H1N1, A549, 48 h

| Compound | IC50 [1, 2] | EC50 (NFκB) | IC50 [1] |
| --- | --- | --- | --- |
| CC(C)Oc1ccc(C(=O)Nc2scc(C3CCc4ccccc4C3)c2C(=O)O)cc1 (centres unmarked) [#180] | 0.3 nM | 50 nM | – |
| COCCNc1cccc(C(=O)Nc2scc(C3CCc4ccccc4C3)c2C(=O)O)c1 (centres unmarked) [#94] | 2 nM | 90 nM | – |
| O=C(Nc1scc(C2CCc3ccccc3C2)c1C(=O)O)c1ccc(N2C[C@@H]3C[C@H]2CO3)cc1 (some centres unmarked) [#140] | 3.5 nM | 40 nM | – |
| O=C(Nc1scc(C2CCc3ccccc3C2)c1C(=O)O)c1ccc(OC(F)F)cc1 (centres unmarked) [#152] | – | 160 nM | 2 nM |
| COc1ccc(C(=O)Nc2scc(C3CCc4ccccc4C3)c2C(=O)O)cc1F (centres unmarked) [#162] | 4 nM | 200 nM | – |
| O=C(Nc1sc(Cl)c(C2CCc3ccccc3C2)c1C(=O)O)c1ccccc1 (centres unmarked) [#17] | 38.3 nM | 180 nM | – |
| CN1CCOc2cc(C(=O)Nc3scc(C4CCc5ccccc5C4)c3C(=O)O)ccc21 (centres unmarked) [#86] | 2 nM | 40 nM | – |
| O=C(Nc1scc(C2CCc3ccccc3C2)c1C(=O)O)c1ccc(F)cc1 (centres unmarked) [#151] | – | 90 nM | 2 nM |
| O=C(Nc1scc(C2CCc3ccccc32)c1C(=O)O)c1ccccc1 (centres unmarked) [#19] | 67 nM | 200 nM | – |
| O=C(Nc1scc(C2CCCc3ccccc32)c1C(=O)O)c1ccccc1 (centres unmarked) [#124] | 237 nM | 910 nM | – |
| COCCCNc1ccc(C(=O)Nc2scc(C3CCc4ccccc43)c2C(=O)O)cc1 (centres unmarked) [#57] | 76 nM | 80 nM | – |
| O=C(Nc1scc(C2CCc3ccccc3C2)c1C(=O)O)c1ccc(NCC2CCS(=O)(=O)CC2)cc1 (centres unmarked) [#138] | 22 nM | – | – |
| O=C(Nc1scc(C2CCc3ccccc3C2)c1C(=O)O)c1ccc(NC2CCCOC2)cc1 (centres unmarked) [#67] | 2 nM | – | – |
| O=C(Nc1scc(C2CCc3ccccc3C2)c1C(=O)O)c1ccccc1O (centres unmarked) [#160] | 147 nM | – | – |
| O=C(Nc1scc(C2CCc3ccccc3C2)c1C(=O)O)c1ccc(C(F)(F)F)cc1 (centres unmarked) [#158] | 7 nM | – | – |
